Results published in ChEMBL document CHEMBL1201862, “PubChem BioAssay data set” (2004).
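All cell lines were grown in 96-well plates and treated with compound for 48 hours. GI50 = concentration required for 50% inhibition of growth.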 Activity calls are given as the source filed them. No stated cut-off is given here; in the data, active = GI50 up to about 1.1 µM and inactive = higher.

How the values were obtained:
Test in all cases: DTP human tumour cell line panel, 48 h
SF-295 = test system: SF-295
SR = test system: SR
HOP-92 = test system: HOP-92
SNB-75 = test system: SNB-75
786-0 = test system: 786-0
Malme-3M = test system: Malme-3M
HCT-116 = test system: HCT-116
SF-539 = test system: SF-539
LOX IMVI = test system: LOX IMVI
SN12C = test system: SN12C
MCF7 = test system: MCF7
NCI/ADR-RES = test system: NCI/ADR-RES
NCI-H522 = test system: NCI-H522
M14 = test system: M14
SK-MEL-5 = test system: SK-MEL-5
SW-620 = test system: SW-620
HCC 2998 = test system: HCC 2998
A498 = test system: A498
CCRF-CEM = test system: CCRF-CEM

Measured: GI50

Cc1ccc(S(=O)(=O)OC2CCN(C)CC2)cc1
inactive: SF-295 > 100 µM | SR 20.5 µM | HOP-92 19.8 µM | SNB-75 42.4 µM | 786-0 > 100 µM | Malme-3M 19 µM | HCT-116 46.6 µM | SF-539 88.7 µM | LOX IMVI > 100 µM | SN12C > 100 µM | MCF7 47.9 µM | NCI/ADR-RES > 100 µM | NCI-H522 19 µM | M14 > 100 µM | SK-MEL-5 15.6 µM | SW-620 20.1 µM

CCOC(=O)CCC(NC(=O)Cc1ccc(Oc2nc3ccccc3nc2-c2ccccc2)cc1)C(=O)OCC (stereo not given)
inactive: HCC 2998 > 100 µM | SF-295 67.1 µM | SR > 100 µM | A498 > 100 µM | CCRF-CEM > 100 µM | SNB-75 37.8 µM | 786-0 35.5 µM | Malme-3M > 100 µM | HCT-116 > 100 µM | SF-539 29.9 µM | SN12C > 100 µM | MCF7 91 µM | NCI/ADR-RES 70.8 µM | NCI-H522 34.6 µM | M14 > 100 µM | SK-MEL-5 57.9 µM | SW-620 > 100 µM

CC1(C)C2CCC(N)(C2)C1O (stereo not given)
inactive: HCC 2998 > 100 µM | SF-295 > 100 µM | SR > 100 µM | HOP-92 > 100 µM | A498 > 100 µM | CCRF-CEM > 100 µM | SNB-75 > 100 µM | 786-0 > 100 µM | HCT-116 > 100 µM | LOX IMVI > 100 µM | SN12C > 100 µM | MCF7 > 100 µM | NCI/ADR-RES > 100 µM | M14 > 100 µM | SK-MEL-5 > 100 µM | SW-620 > 100 µM

CC1=NN(c2cccc(Cl)c2)C2(C1=Cc1ccc(O)cc1)C(Cl)C(=O)N2c1nc2ccccc2s1 (stereo not given)
inactive: HCC 2998 18.8 µM | SF-295 21.5 µM | SR 19.9 µM | HOP-92 15.1 µM | A498 13.6 µM | CCRF-CEM 28.6 µM | 786-0 24.3 µM | HCT-116 15.9 µM | SF-539 35.4 µM | LOX IMVI 22.1 µM | MCF7 17.8 µM | NCI/ADR-RES 21.4 µM | NCI-H522 22.2 µM | M14 24.7 µM | SK-MEL-5 16.6 µM | SW-620 15.4 µM

Cc1cnoc1NS(=O)(=O)c1ccc(Nc2nnc(/C=C/c3c(O)ccc4ccccc34)c(=O)n2N)cc1
inactive: SF-295 64 µM | SR 21.8 µM | HOP-92 41.3 µM | CCRF-CEM 10.9 µM | SNB-75 20.8 µM | 786-0 35.1 µM | Malme-3M 24 µM | HCT-116 22 µM | LOX IMVI 19.1 µM | SN12C 29.4 µM | MCF7 18.2 µM | NCI/ADR-RES 11.5 µM | M14 25.9 µM | SW-620 32.7 µM

CN1C(=O)N/C(=C\c2ccc(S(=O)(=O)N/N=C\C(O)C(O)C(O)CO)cc2)C1=O (stereo not given)
inactive: HCC 2998 > 100 µM | SF-295 > 100 µM | SR > 100 µM | HOP-92 > 100 µM | A498 > 100 µM | CCRF-CEM > 100 µM | SNB-75 > 100 µM | 786-0 > 100 µM | Malme-3M > 100 µM | HCT-116 > 100 µM | LOX IMVI > 100 µM | SN12C > 100 µM | MCF7 > 100 µM | NCI/ADR-RES > 100 µM | M14 > 100 µM | SK-MEL-5 > 100 µM | SW-620 > 100 µM

O=C(O)C1(Cc2ccccc2)Cc2cc3c(cc2C1)CCC3
inactive: HCC 2998 58.2 µM | SF-295 > 100 µM | SR > 100 µM | HOP-92 21 µM | CCRF-CEM 45.1 µM | SNB-75 > 100 µM | 786-0 > 100 µM | Malme-3M > 100 µM | HCT-116 42.9 µM | SF-539 > 100 µM | LOX IMVI > 100 µM | SN12C > 100 µM | MCF7 > 100 µM | NCI/ADR-RES 89.3 µM | NCI-H522 > 100 µM | M14 44.1 µM | SK-MEL-5 > 100 µM | SW-620 > 100 µM

O=c1c2ccccc2nc(Nc2cccc(Cl)c2)n1/N=C/C=C/c1ccccc1
inactive: HCC 2998 94 µM | SF-295 60 µM | SR 29.6 µM | HOP-92 91.2 µM | CCRF-CEM > 100 µM | SNB-75 45.4 µM | 786-0 48.5 µM | Malme-3M > 100 µM | HCT-116 60.4 µM | SF-539 35.7 µM | LOX IMVI > 100 µM | SN12C 52.6 µM | MCF7 26.3 µM | NCI/ADR-RES 63.5 µM | NCI-H522 50.5 µM | M14 > 100 µM | SK-MEL-5 89.3 µM | SW-620 51.5 µM

CC(C)(C)c1ccccc1N1C(=O)c2ccc3c4c(ccc(c24)C1=O)N(c1ccccc1C(C)(C)C)C3=O
inactive: HCC 2998 > 100 µM | SF-295 71.3 µM | SR > 100 µM | HOP-92 6.43 µM | CCRF-CEM > 100 µM | 786-0 > 100 µM | HCT-116 > 100 µM | SF-539 > 100 µM | SN12C > 100 µM | MCF7 > 100 µM | NCI/ADR-RES > 100 µM | NCI-H522 5.07 µM | M14 > 100 µM | SK-MEL-5 > 100 µM | SW-620 > 100 µM

O=c1[nH]c2nc3ccccc3c(=O)n2/c1=C/c1ccccc1
inactive: HCC 2998 31 µM | SF-295 > 100 µM | SR > 100 µM | HOP-92 20.7 µM | CCRF-CEM 40.3 µM | SNB-75 30.5 µM | 786-0 25.8 µM | Malme-3M 38.6 µM | HCT-116 31.1 µM | SF-539 22.5 µM | LOX IMVI 25.2 µM | SN12C 25.1 µM | MCF7 44.2 µM | NCI/ADR-RES 43.6 µM | NCI-H522 17.1 µM | M14 47.9 µM | SK-MEL-5 48.9 µM | SW-620 17.7 µM

CC(=O)Oc1cc(S(=O)(=O)Nc2nc(N)n[nH]2)c(S)cc1Cl
inactive: HCC 2998 > 100 µM | SF-295 > 100 µM | SR > 100 µM | HOP-92 > 100 µM | A498 > 100 µM | CCRF-CEM > 100 µM | 786-0 > 100 µM | Malme-3M > 100 µM | HCT-116 > 100 µM | SF-539 > 100 µM | LOX IMVI > 100 µM | SN12C > 100 µM | MCF7 > 100 µM | NCI/ADR-RES > 100 µM | NCI-H522 > 100 µM | M14 > 100 µM | SK-MEL-5 > 100 µM | SW-620 > 100 µM

O=C(CCc1cccc(O)c1)NCCc1cccc(O)c1
inactive: HCC 2998 > 100 µM | SF-295 > 100 µM | SR > 100 µM | HOP-92 > 100 µM | A498 > 100 µM | CCRF-CEM > 100 µM | 786-0 > 100 µM | Malme-3M > 100 µM | HCT-116 > 100 µM | SF-539 > 100 µM | LOX IMVI > 100 µM | SN12C > 100 µM | MCF7 > 100 µM | NCI/ADR-RES > 100 µM | NCI-H522 > 100 µM | M14 > 100 µM | SK-MEL-5 > 100 µM
